Assays:
[1] = tested on: patients with acute manic (including mixed) episode, bipolar I disorder; assay: Adverse events, Studies BIA-2093-203 and BIA-2093-204 together (safety population); type: in vivo, human
Description: (§1) Medical history and demographic information was obtained at the screening visit. A complete physical and neurological examination was performed at screening, V7 or early discontinuation (EDV), V8 and post-study visit (PSV). Vital signs (pulse rate and blood pressure) were determined at every visit. […] Clinically significant abnormalities in laboratory tests, vital signs or 12-lead ECG were considered as AEs.
(§2) Safety was evaluated based on the occurrence of AEs. AEs were documented by the investigator with reference to intensity, dates of occurrence and resolution, outcome and relation to the treatment (causality). Furthermore, each AE was classified as being serious or non-serious. All patients with AEs were followed until their resolution. AEs were coded according to the Medical Dictionary for Regulatory Activities (MedDRA).
Three study populations were defined for the statistical analyses: safety, intent to treat (ITT), and per protocol (PP). The safety population consisted of all patients who received at least one dose of investigational product. The ITT population consisted of all randomised patients who had at least one post-baseline efficacy assessment. The PP population consisted of all patients who complied with the study protocol without major deviations.

[2] = tested on: patients with bipolar I disorder who responded to treatment in the acute phase studies; assay: Study BIA-2093-205: recurrence prevention study (2-week open-label Part I, double-blind fixed dose Part II); type: in vivo, human; conditions: for Patient worsening status according to CGI-BP Scale: No worsening / Patient worsening status according to CGI-BP Scale: Worsening: Part II; for Patient worsening status according to CGI-BP Scale: No worsening / Patient worsening status according to CGI-BP Scale: Worsening / median time to withdrawal / patients who withdrew / proportion of patients with MADRS scores ≧18 (depressive symptomatology) / proportion of patients with YMRS scores ≧15 (manic symptomatology) / mean (SD) highest mood scores (patient e-diary, 100-point visual analogue scale) / mean (SD) overall lowest mood scores (patient e-diary, 100-point visual analogue scale): ITT; for mean (SD) highest mood scores (patient e-diary, 100-point visual analogue scale) / mean (SD) overall lowest mood scores (patient e-diary, 100-point visual analogue scale) / patients who withdrew (AE section; withdrawing because of AEs): double-blind period
Description: Part I followed an open-label design in which all participants received treatment with ESL 900 mg QD for 2 weeks. Part II followed a double-blind, parallel-group, fixed multiple dose design in which participants were randomly assigned (1:1:1) to one of the following treatment groups: (1) ESL 1800 mg QD, (2) ESL 900 mg QD, and (3) ESL 300 mg QD. […] The occurrence of a new manic/depressive episode was considered a treatment failure, and the patient was discontinued from the study.
If the patient had—in change from preceding phase scale—a score of 5, 6, or 7 in any of 3 categories (mania, depression, or overall bipolar disorder), the illness was considered to have worsened. Secondary efficacy variables included: proportion of patients developing manic symptomatology (YMRS score ≧15); proportion of patients developing depressive symptomatology (MADRS score ≧18); the highest and lowest mood state, collected in the patient diary card; and time to withdrawal. All efficacy assessments were evaluated at each study visit.
Mood was self-evaluated in a 100-point visual analogue scale using the DiaryPRO™ software (Invivodata®, Inc.) implemented on a touch-screen device (Palm™ OS). Patients completed their training in the e-diary use in V1 and were assisted by the study staff when necessary. Data were collected and transferred from the patient's home to the study server on a daily basis.
as §1, §2
Proportions of patients were compared between treatment groups using a Cochran-Mantel-Haenszel (CMH) test stratified by region. […] In all analyses, if the treatment effect was significant (p<0.05) pairwise comparisons were to be performed to assess the differences.
Changes in total YMRS, CGI-BP and MADRS scores were tested by analysis of covariance (ANCOVA) using baseline score value, region, treatment and region-by-treatment interaction as covariates; Dunnett's multiple comparison procedure was used for the comparison of the treatment means. ANCOVA was used to evaluate the change in YMRS score from baseline to the end of the 3-week treatment period, the CGI-BP score at the end of the 3-week treatment period, the MADRS score at the end of the 3-week treatment period, and the highest and lowest mood states (the mean highest and lowest score for each patient was calculated for intervals of 28 calendar days).
Survival analysis was performed using log-rank test/Kaplan-Meier and Cox proportional hazards model.

[3] = ESL 600 mg, n = 72, Studies 203 and 204
[4] = Part II Double-Blind Period, ESL 300 mg, n = 35
[5] = Part II Double-Blind Period, ESL 900 mg, n = 26
[6] = Part II Double-Blind Period, ESL 1800 mg, n = 26

Structure (SMILES): CC(=O)O[C@H]1Cc2ccccc2N(C(N)=O)c2ccccc21 [ESL, (S)-10-acetoxy-10,11-dihydro-5H-dibenz[b,f]azepine-5-carboxamide]
- serious AE: leukopenia and hyponatremia ([1]; ESL 600 mg): 1 case
- Any Adverse Events [1, 3]: 38 (52.8) Number (%) of patients
- Diarrhoea [1, 3]: 8 (11.1) Number (%) of patients
- Dizziness [1, 3]: 7 (9.7) Number (%) of patients
- Headache [1, 3]: 8 (11.1) Number (%) of patients
- Nausea [1, 3]: 2 (2.8) Number (%) of patients
- Paraesthesia oral [1, 3]: 0 (0.0) Number (%) of patients
- Somnolence [1, 3]: 2 (2.8) Number (%) of patients
- Vomiting [1, 3]: 4 (5.6) Number (%) of patients
- incidence of treatment-related AEs ([1]; studies BIA-2093-203 and BIA-2093-204, comparable between treatment groups): < 35 % of patients
- Patient worsening status according to CGI-BP Scale: No worsening ([2]; ESL 300 mg QD, n = 34): 26 (76.5) n (%)
- Patient worsening status according to CGI-BP Scale: Worsening ([2]; ESL 300 mg QD, n = 34): 6 (17.6) n (%)
- serious AE: mania ([2]; ESL 300 mg group): 2 cases
- proportion of patients who prematurely discontinued ([2]; ESL 300 mg group (n=19)): 54.3%
- median time to withdrawal ([2]; ESL 300 mg group): 254 days
- patients who withdrew ([2]; ESL 300 mg group): 52.9%
- proportion of patients with MADRS scores ≧18 (depressive symptomatology) ([2]; ESL 300 mg): 14.7%
- proportion of patients with YMRS scores ≧15 (manic symptomatology) ([2]; ESL 300 mg): 8.8%
- mean (SD) highest mood scores (patient e-diary, 100-point visual analogue scale) ([2]; ESL 300 mg): 49.2 (11.0)
- mean (SD) overall lowest mood scores (patient e-diary, 100-point visual analogue scale) ([2]; ESL 300 mg): 45.9 (10.4)
- Patient worsening status according to CGI-BP Scale: No worsening ([2]; ESL 900 mg QD, n = 25): 14 (56.0) n (%)
- Patient worsening status according to CGI-BP Scale: Worsening ([2]; ESL 900 mg QD, n = 25): 10 (40.0) n (%)
- serious AE: anaemia ([2]; ESL 900 mg group): 1 case
- serious AE: disease progression ([2]; ESL 900 mg group): 1 case
- serious AE: oesophageal stenosis ([2]; ESL 900 mg group): 1 case
- serious AE: pneumonia ([2]; ESL 900 mg group): 1 case
- proportion of patients who prematurely discontinued ([2]; ESL 900 mg group (n=14)): 53.8%
- median time to withdrawal ([2]; ESL 900 mg group): 295 days
- patients who withdrew ([2]; ESL 900 mg group): 52.0%
- proportion of patients with MADRS scores ≧18 (depressive symptomatology) ([2]; ESL 900 mg): 0.0%
- proportion of patients with YMRS scores ≧15 (manic symptomatology) ([2]; ESL 900 mg): 16.0%
- mean (SD) highest mood scores (patient e-diary, 100-point visual analogue scale) ([2]; ESL 900 mg): 50.6 (6.4)
- mean (SD) overall lowest mood scores (patient e-diary, 100-point visual analogue scale) ([2]; ESL 900 mg): 47.3 (12.4)
- Patient worsening status according to CGI-BP Scale: No worsening ([2]; ESL 1800 mg QD, n = 26): 16 (61.5) n (%)
- Patient worsening status according to CGI-BP Scale: Worsening ([2]; ESL 1800 mg QD, n = 26): 6 (23.1) n (%)
- serious AE: bronchitis ([2]; ESL 1800 mg group): 1 case
- serious AE: depression ([2]; ESL 1800 mg group): 1 case
- serious AE: disease progression ([2]; ESL 1800 mg group): 1 case
- proportion of patients who prematurely discontinued ([2]; ESL 1800 mg group (n=19)): 73.1%
- median time to withdrawal ([2]; ESL 1800 mg group): 109 days
- patients who withdrew ([2]; ESL 1800 mg group): 73.1%
- proportion of patients with MADRS scores ≧18 (depressive symptomatology) ([2]; ESL 1800 mg): 11.5%
- proportion of patients with YMRS scores ≧15 (manic symptomatology) ([2]; ESL 1800 mg): 19.2%
- mean (SD) highest mood scores (patient e-diary, 100-point visual analogue scale) ([2]; ESL 1800 mg): 55.1 (10.4)
- mean (SD) overall lowest mood scores (patient e-diary, 100-point visual analogue scale) ([2]; ESL 1800 mg): 51.1 (12.3)
- patients who showed no worsening according to the CGI-BP scale ([2]; ITT population, all treatment groups (300, 900, 1800 mg), no significant dose difference (p=0.250)): at least 50%
- Any Adverse Events ([2]; Part I Open-Label Period, ESL 900 mg, n = 104): 20 (19.2) Number (%) of patients
- Agitation [2, 4]: 2 (5.7) Number (%) of patients
- Any Adverse Events [2, 4]: 14 (40.0) Number (%) of patients
- Aspartate amino-transferase increased [2, 4]: 0 (0.0) Number (%) of patients
- Blood creatine phosphokinase increased [2, 4]: 1 (2.9) Number (%) of patients
- Bronchitis [2, 4]: 0 (0.0) Number (%) of patients
- Depression [2, 4]: 3 (8.6) Number (%) of patients
- Dizziness [2, 4]: 0 (0.0) Number (%) of patients
- Mania [2, 4]: 2 (5.7) Number (%) of patients
- Nausea [2, 4]: 0 (0.0) Number (%) of patients
- Sinus tachycardia [2, 4]: 2 (5.7) Number (%) of patients
- Agitation [2, 5]: 0 (0.0) Number (%) of patients
- Any Adverse Events [2, 5]: 14 (53.8) Number (%) of patients
- Aspartate amino-transferase increased [2, 5]: 0 (0.0) Number (%) of patients
- Blood creatine phosphokinase increased [2, 5]: 0 (0.0) Number (%) of patients
- Bronchitis [2, 5]: 1 (3.8) Number (%) of patients
- Depression [2, 5]: 3 (11.5) Number (%) of patients
- Dizziness [2, 5]: 0 (0.0) Number (%) of patients
- Mania [2, 5]: 0 (0.0) Number (%) of patients
- Nausea [2, 5]: 0 (0.0) Number (%) of patients
- Sinus tachycardia [2, 5]: 1 (3.8) Number (%) of patients
- Agitation [2, 6]: 1 (3.8) Number (%) of patients
- Any Adverse Events [2, 6]: 18 (69.2) Number (%) of patients
- Aspartate amino-transferase increased [2, 6]: 2 (7.7) Number (%) of patients
- Blood creatine phosphokinase increased [2, 6]: 3 (11.5) Number (%) of patients
- Bronchitis [2, 6]: 2 (7.7) Number (%) of patients
- Depression [2, 6]: 1 (3.8) Number (%) of patients
- Dizziness [2, 6]: 3 (11.5) Number (%) of patients
- Mania [2, 6]: 0 (0.0) Number (%) of patients
- Nausea [2, 6]: 3 (11.5) Number (%) of patients
- Sinus tachycardia [2, 6]: 0 (0.0) Number (%) of patients
- deaths ([2]; all treatment groups): No deaths occurred
- patients who withdrew (AE section; withdrawing because of AEs) ([2]; ESL 300 mg group (n=3)): 8.6%
- patients who withdrew (AE section; withdrawing because of AEs) ([2]; ESL 900 mg group (n=3)): 11.5%
- patients who withdrew (AE section; withdrawing because of AEs) ([2]; ESL 1800 mg group (n=1)): 3.8%
- patients with AEs ([2]; open-label period, ESL 900 mg QD (20 patients)): 19.2%
- number of AEs reported ([2]; open-label period, ESL 900 mg QD, in 20 patients): 42 AEs
- premature discontinuation because of treatment failure ([2]; overall (n=22), similar proportions between treatment groups): 21.2%
- patients completed 6 months of treatment ([2]; overall, of 104 patients enrolled in Part I (n=35)): 33.7%
- incidence of treatment-related AEs ([2]; recurrence prevention study, comparable between treatment groups): < 25 % of patient

From US20160051560A1, “TREATMENTS INVOLVING ESLICARBAZEPINE OR ESLICARBAZEPINE ACETATE” (BIAL - PORTELA & Cª, S.A., priority 2013, published 2016)
